Results on 19 compounds are retold here after ChEMBL document CHEMBL5257105, “Identification and structure-activity relationships for a series of N, N-disubstituted 2-aminobenzothiazoles as potent inhibitors of S. aureus” (Bioorg Med Chem Lett, 2023).

In brackets after ≈: the same amount, converted by molar mass.

Data set [1] can be described thus: (§1) Cytotoxicity against human A549 cells. The note with it: A549 cells. Format: toxicity, cell-based.
Another data set concerns Staphylococcus aureus. Put plainly: Antibacterial activity against Staphylococcus aureus. It is filed as functional. The following applies: for MIC: read-out: MIC.
Data set [2] concerns Pseudomonas aeruginosa. The experiment in a line: Antibacterial activity against Pseudomonas aeruginosa PAO1 harbouring delta6 mutant with pore. It is filed as functional.
For data set [3], the system named is Pseudomonas aeruginosa. Put plainly: Antibacterial activity against Pseudomonas aeruginosa PAO1. Format: functional.
Data set [4] relates to Pseudomonas aeruginosa. Put plainly: Antibacterial activity against Pseudomonas aeruginosa PAO1 harbouring delta6 mutant. It is filed as functional.
Data set [5] concerns Escherichia coli. The experiment in a line: Antibacterial activity against Escherichia coli. Format: functional.
For data set [6], the system named is Escherichia coli. Put plainly: Antibacterial activity against wild type Escherichia coli harbouring pore. Format: functional.
Data set [7] has as its system Escherichia coli. Put plainly: Antibacterial activity against […] Escherichia coli harbouring TolC-deficient mutant. It is filed as functional.
Data set [8] concerns Escherichia coli. Put plainly: Antibacterial activity against […] Escherichia coli harbouring TolC-deficient mutant with pore. Format: functional.
Data set [9] deals with Pseudomonas aeruginosa. The experiment in a line: Antibacterial activity against Pseudomonas aeruginosa PAO1 harbouring pore. Format: functional.
A further data set has as its system A549. Described as §1. It is filed as toxicity, cell-based. The following applies: a549.
Setting [10] is: Staphylococcus aureus, read-out: MIC80.

Take `O=C(c1ccco1)N(CCCn1ccnc1)c1nc2c(F)cc(F)cc2s1`: in data set [1], the CC50 (as a rule, the concentration giving 50% cytotoxicity) is 93.7 µM. Further, the MIC (in general, the lowest concentration found to suppress growth) in the data set with Staphylococcus aureus (Staphylococcus aureus) was 16.5 µM (≈ 6.41 µg/mL).

With `Cc1cc(Cl)cc2sc(N(CC3CCNCC3)C(=O)c3ccco3)nc12`, the MIC in the data set with Pseudomonas aeruginosa [2] is 25 µM (≈ 9.75 µg/mL); with Pseudomonas aeruginosa [3] it was > 200 µM; with Pseudomonas aeruginosa [4] it was 25 µM (≈ 9.75 µg/mL); with Escherichia coli [5], 200 µM (≈ 78 µg/mL); against Escherichia coli [6], 200 µM (≈ 78 µg/mL); against Escherichia coli [7] it was 50 µM (≈ 19.5 µg/mL). Further, the MIC with Escherichia coli [8] was 50 µM (≈ 19.5 µg/mL); against Pseudomonas aeruginosa [9], > 200 µM. The MIC80 (commonly the lowest concentration that inhibits either 80% of growth or 80% of the strains tested, depending on the study) against Staphylococcus aureus was 19.8 µM (≈ 7.72 µg/mL); in the data set on Staphylococcus aureus (setting [10]), 13.2 µM (≈ 5.15 µg/mL).

Take `O=C(c1ccco1)N(CCCn1ccnc1)c1nc2ccc(Cl)nc2s1`: the MIC with Staphylococcus aureus (Staphylococcus aureus) is > 100 µM.

For `Cc1cccc2sc(N(CCCn3ccnc3)C(=O)c3ccco3)nc12`, the CC50 in data set [1] is 84.7 µM. For the same compound, in the data set on Staphylococcus aureus (Staphylococcus aureus), the MIC was found to be 7.4 µM (≈ 2.71 µg/mL).

As to `Cc1cc(Cl)cc2sc(N(CCCn3ccnc3)C(=O)C3CCCO3)nc12` (centres undefined), the CC50 in the data set on A549 came out at 87.6 µM. Moreover, the MIC with Staphylococcus aureus (Staphylococcus aureus) was 13.2 µM (≈ 5.34 µg/mL).

On to `Cc1cc(Cl)cc2sc(N(CCCn3ccnc3)CC3CC3)nc12`, for which, in [1], the CC50 is 65.6 µM. Also, in the data set with Staphylococcus aureus (setting [10]), the MIC80 was determined as 5.9 µM (≈ 2.13 µg/mL).

In the data set on A549, `Cc1cc(C(=O)N(CCCn2ccnc2)c2nc3c(C)cc(Cl)cc3s2)oc1C` yielded a CC50 of 52.1 µM. Also, in the data set with Staphylococcus aureus (Staphylococcus aureus), the MIC worked out at 3.9 µM (≈ 1.67 µg/mL).

As to `Cc1cc(Cl)cc2sc(NCCCn3ccnc3)nc12`, in data set [1], the midpoint of cytotoxicity, the CC50, lay at 111 µM. For the same compound, the MIC in the data set on Staphylococcus aureus (Staphylococcus aureus) turned out to be 19.8 µM (≈ 6.08 µg/mL).

With `Cc1nc(Cl)cc2sc(N(CCCn3ccnc3)C(=O)c3ccco3)nc12`, the MIC with Staphylococcus aureus (Staphylococcus aureus) was > 100 µM.

`Cc1c(Cl)ccc2sc(N(CCCn3ccnc3)C(=O)c3ccco3)nc12` yielded a CC50 in data set [1] of 27.4 µM. In the data set on Staphylococcus aureus (Staphylococcus aureus), the MIC turned out to be 2.6 µM (≈ 1.04 µg/mL).

`CC[C@H]1OC(=O)[C@H](C)[C@@H](O[C@H]2C[C@@](C)(OC)[C@@H](O)[C@H](C)O2)[C@H](C)[C@@H](O[C@@H]2O[C@H](C)C[C@H](N(C)C)[C@H]2O)[C@](C)(O)C[C@@H](C)C(=O)[C@H](C)[C@@H](O)[C@]1(C)O` [ERYTHROMYCIN]: the MIC against Pseudomonas aeruginosa [2] was found to be 0.063 µM (≈ 0.0462 µg/mL); against Pseudomonas aeruginosa [3], 128 µM (≈ 93.9 µg/mL); in the data set with Pseudomonas aeruginosa [4] it was 8 µM (≈ 5.87 µg/mL); with Escherichia coli [5] it was 64 µM (≈ 47 µg/mL); with Escherichia coli [6] it was 4 µM (≈ 2.94 µg/mL); with Escherichia coli [7] it was 2 µM (≈ 1.47 µg/mL).

For `Cc1cc(Cl)cc2sc(N(CCCn3ccnc3)C(=O)c3ccc[nH]3)nc12`, the CC50 with A549 was > 100 µM. For the same compound, the MIC was > 100 µM with Pseudomonas aeruginosa [3]; > 100 µM with Pseudomonas aeruginosa [4]; > 200 µM with Escherichia coli [5]; > 200 µM against Escherichia coli [6]; 1.56 µM (≈ 0.624 µg/mL) with Escherichia coli [7]; 0.78 µM (≈ 0.312 µg/mL) against Escherichia coli [8]. Besides, the values for the MIC in the data set with Pseudomonas aeruginosa [9] and with Staphylococcus aureus (Staphylococcus aureus) were > 100 µM and 1.7 µM (≈ 0.68 µg/mL), respectively.

Consider `NCc1cccc2sc(N(CCCn3ccnc3)C(=O)c3ccco3)nc12`, for which the MIC in the data set with Pseudomonas aeruginosa [2] was 100 µM (≈ 38.1 µg/mL); with Pseudomonas aeruginosa [3] it was > 200 µM; against Pseudomonas aeruginosa [4] it was 100 µM (≈ 38.1 µg/mL); against Escherichia coli [5], > 200 µM; against Escherichia coli [6], > 200 µM; in the data set with Escherichia coli [7], 100 µM (≈ 38.1 µg/mL). Moreover, the results for the MIC against Escherichia coli [8], in the data set on Pseudomonas aeruginosa [9] and with Staphylococcus aureus (Staphylococcus aureus) were 100 µM (≈ 38.1 µg/mL), > 200 µM and 66.7 µM (≈ 25.4 µg/mL), respectively.

Regarding `Cc1cc(Cl)cc2sc(N(CCCn3ccnc3)CS(=O)(=O)c3cccs3)nc12`, in [1], it took 26.3 µM to reach half-maximal cytotoxicity (CC50). For the same compound, the MIC80 with Staphylococcus aureus (setting [10]) is 3.9 µM (≈ 1.82 µg/mL).

In turn, `Cc1cc(Cl)cc2sc(N(CCCn3ccnc3)C(=O)c3ccccc3)nc12` gave a CC50 in the data set with A549 of 37.2 µM. The MIC in the data set with Staphylococcus aureus (Staphylococcus aureus) worked out at 4.9 µM (≈ 2.01 µg/mL).

On to `Cc1cc(Cl)cc2sc(N(CC3CCCNC3)C(=O)c3ccco3)nc12` (centres undefined), for which the MIC in the data set with Pseudomonas aeruginosa [2] is 25 µM (≈ 9.75 µg/mL); against Pseudomonas aeruginosa [3] it was > 200 µM; with Pseudomonas aeruginosa [4] it was > 200 µM; against Escherichia coli [6] it was 100 µM (≈ 39 µg/mL); with Escherichia coli [7], 100 µM (≈ 39 µg/mL); against Escherichia coli [8], 50 µM (≈ 19.5 µg/mL). Besides, the minimum inhibitory concentration (MIC) in the data set on Pseudomonas aeruginosa [9] is > 200 µM. Besides, the MIC80 amounted to 19.8 µM (≈ 7.72 µg/mL) with Staphylococcus aureus and 29.6 µM (≈ 11.5 µg/mL) with Staphylococcus aureus (setting [10]).

`Cc1ccc(C(=O)N(CCCn2ccnc2)c2nc3c(C)cc(Cl)cc3s2)s1` gave a CC50 in the data set on A549 of 34.1 µM. Further, in the data set with Staphylococcus aureus (Staphylococcus aureus), the MIC turned out to be 16.5 µM (≈ 7.11 µg/mL).

On to `Cc1ccc(C(=O)N(CCCn2ccnc2)c2nc3c(C)cc(Cl)cc3s2)o1`, for which the CC50 in the data set with A549 was 35.2 µM. The MIC in the data set with Staphylococcus aureus (Staphylococcus aureus) was 2.6 µM (≈ 1.08 µg/mL).

In [1], `Cc1cc(Cl)cc2sc(N(CCCn3ccnc3)CS(=O)(=O)c3ccccc3)nc12` returned a CC50 of 23.3 µM. Moreover, in the data set on Staphylococcus aureus (setting [10]), the MIC80 stood at 2.6 µM (≈ 1.2 µg/mL).
